Experimental findings from US20170181431A1, “HERBICIDAL COMPOSITIONS CONTAINING 4-AMINO-3-CHLORO-6-(4-CHLORO-2-FLUORO-3-METHOXYPHENYL) PYRIDINE-2-CARBOXYLIC ACID OR A DERIVATIVE THEREOF AND A CELL MEMBRANE DISRUPTOR HERBICIDE OR A DERIVATIVE THEREOF” (Dow AgroSciences LLC, priority 2015, published 2017) are described below.

SMILES strings stand for the structures.

The assay relates to Conyza species (fleabane, ERISS). The experiment in a line: Field trial of post-emergence (foliar) herbicidal activity, percent weed control visually rated. The class given is in vivo. The note with it: Cmpd 1 alone 5 g ae/ha, Table 2. The text has this:
Treatments consisted of the methyl ester of 4-amino-3-chloro-6-(4-chloro-2-fluoro-3-methoxyphenyl)pyridine-2-carboxylic acid (Cmpd 1) tankmixed with saflufenacil or paraquat. The form of compound of formula (I) was applied on an acid equivalent basis, and saflufenacil and paraquat were applied on an active ingredient basis. Saflufenacil was applied as a commercial formulation containing 700 grams per kilogram (g/kg). Paraquat was applied as a commercial formulation containing 200 g/L.
Field trials were conducted under standard field conditions. Plot sizes varied from 2 meters (m) wide by 5 m long. Treatments were applied with small plot backpack sprayers, using pressurized carbon dioxide (CO2) as propellant. Pressure varied from 40-45 pounds per square inch (PSI), with spray tips typically of a Flat Fan type applying water diluent at 100 liters per hectare (L/ha). Boom size was 2 m in width. Weed sizes varied, but all treatments were applied as post-emergence treatments to weeds from 2 leaf to 2 tiller growth stages varying from 2-15 inches in height. No additional adjuvant was mixed with the treatments applied in the field.
Results in Tables 1 to 2 are field trial results for foliar applied compositions. The values reported are percent (%) control visually rated. The predicted percent (%) weed contol was determined using Colby's equation.
The following abbreviations are used in Tables 1 to 2: ERISS=Conyza species (fleabane, ERISS) g ae/ha=grams acid equivalent per hectare g ai/ha=grams active ingredient per hectare Mean % weed control=observed value of percent (%) control rated visually Predicted mean % weed control=expected value of percent (%) control as calculated by Colby's equation Cmpd 1=methyl 4-amino-3-chloro-6-(4-chloro-2-fluoro-3-methoxyphenyl)pyridine-2-carboxylate, halauxifen-methyl, or ARYLEX® DAA=days after application

Consider `COC(=O)c1nc(-c2ccc(Cl)c(OC)c2F)cc(N)c1Cl` [Cmpd 1, methyl 4-amino-3-chloro-6-(4-chloro-2-fluoro-3-methoxyphenyl)pyridine-2-carboxylate], for which the “Cmpd 1 Mean % weed control” value by setting is: (17DAA) 33.75%; (28DAA) 33.75%; (43DAA) 40%.
